# From patent JP2006083192A, “サイトカイン異常産生又は接着作用の亢進に伴う疾患を予防又は治療するための薬剤” (Otsuka Pharmaceutical Co Ltd, priority 1996, dated 1998)
# How the values were obtained:
# Assay type in all cases: cell-based
# [1] = tested on: IFN-γ production (IFN−γ産生); assay: 薬理試験6 IFN−γ産生抑制作用 (inhibition of IFN-γ production, human whole blood); settings: concanavalin A (ConA), 37℃, 48 h, ELISA
# IL-1 production (IL−1産生) = assay: 薬理試験4 IL−1産生抑制作用 (inhibition of IL-1 production, human whole blood); settings: same method as pharmacological test 3 (human whole blood, LPS, 37℃, 24 h)
# IL-6 production (IL−6産生) = assay: 薬理試験5 IL−6産生抑制作用 (inhibition of IL-6 production, human whole blood); settings: same method as pharmacological test 3 (human whole blood, LPS, 37℃, 24 h)
smiles,measurement,setting,value
CCOc1ccc(-c2nc(-c3cccc(C(=O)O)n3)cs2)cc1OCC [実施例2],IC50,[1],5 µM
same,IC50,IL-1 production (IL−1産生),80 µM
same,IC50,IL-6 production (IL−6産生),≥ 100 µM
